Measurements as given in patent US5234903A, “Chemically modified hemoglobin as an effective, stable non-immunogenic red blood cell substitute” (Enzon, Inc., priority 1990, dated 1993).
Read-outs that look alike come from different tables or passages of the source. Each block holds one compound with its values, some of them ahead of it.

How the values were obtained:
bovine hemoglobin = test: Reducing agents in bovine hemoglobin solution (deoxy Hb, Met Hb, free iron); format: biochemical; settings: for Free Iron / Met Hb / deoxy Hb: 30 mM agent, 5% bovine hemoglobin, pH 7.4, 4° C., inert atmosphere, 20 hours
Procedure: 30 mM of each reducing agent tested, including cysteine, glutathione, N-acetyl cysteine, N-acetyl methionine and sodium ascorbate, was added to 5% bovine hemoglobin solution containing 0.lM Na phosphate, 0.1M NaHCO3 and 0.1M NaCl, with pH=7.4 and at 4° C., under an inert atmosphere. 20 hours later, the deoxyhemoglobin (deoxy Hb), Met Hb and free iron concentrations were determined. Met Hb and deoxy Hb concentrations were measured using an OSM3 Hemoximeter (Radiometer) and free iron was determined by the ferrozine assay method (Carter, 1971, Analyt. Biochem. 40:450-458).

[1] = Oxygen binding: P50 (partial pressure of oxygen at 50% saturation) and Hill coefficient
Procedure: Hemoglobin constitutes about 90% of the total protein in red blood cells. 100 ml of whole blood is capable of absorbing approximately 21 ml of gaseous oxygen due to the binding ability of hemoglobin. Equally important to the binding of oxygen, hemoglobin is also efficient in releasing the bound oxygen to tissues. The ability of hemoglobin to bind and release oxygen is often quantitatively expressed as the P50, the partial pressure of oxygen which results in fifty percent saturation of hemoglobin.
The resulting modified hemoglobin may then be tested to determine its P50 value so as to confirm that a clinically useful P50 has been achieved. Methods of P50 measurement include standard methods of analysis, such as, for example, methods utilizing the Hemox-Analyzer (TCS Medical Products Co., Huntingdon Valley, Pa.).
Following reduction, the hemoglobin may be reacted with an activated polyalkylene oxide under conditions which maintain the structural integrity of the oxygen binding site. In preferred embodiments of the invention, such conditions consist of a high anion concentration; in a specific embodiment this anion is chloride ion. In preferred embodiments, the chloride ion concentration is at least about 1.0M. […] According to the invention, the activated polyalkylene oxide may have one or more than one functional groups. The degree of modification for each preparation referred to in Table I is approximately 20 percent. This percent modification corresponds to about […] PEG molecules per each molecule of hemoglobin. The percent modification may be calculated according to the number of lysines modified by PEG and is based on a total of 48 surface lysines in bovine hemoglobin. The number may be determined by trinitrobenzene sulfonic acid (TNBS) assay (Habeef et al., 1966, Analyt. Biochem. 14:328-336).
(§1) The polyalkylene oxide modified hemoglobin may then be chemically characterized using methods known in the art. For example, the oxygen dissociation curve may be determined using standard techniques (for example, Imai et al., 1970, Biochim. Biophys. Acta 200: 189-196) allowing calculation of the P50 value. Additional parameters which would be desirable to measure include the methemoglobin content, the viscosity, the osmolality, the pH, and the Hill constant; the effects of changes in pH on the oxygen saturation curve may be determined as described in Bartels (1971, Blood oxygen dissociation curves: Mammals. in "Respiration and Circulation", Altman and Dittmer, Eds., Federation of American Societies for Experimental Biology, Bethesda).
Purification was carried out using a hollow-fiber ultrafiltration device with M.W. cutoff of 50 kD that is commercially available from American Fluid, Richboro, Pa. The advantage of this device relative to conventional tangential flat ultrafiltration membranes is its easy handling of viscous protein solutions such as the 6% PEG-Hb solution. Following purification, the P50 of the PEG-Hb was determined by a Hemox-Analyzer (TCS Medical Products Co., Huntington Valley, Pa.).

[2] = Viscosity and colloid osmotic pressure of PEG-Hb solutions; format: physicochemical; settings: for colloid osmotic pressure: 6 percent (g/dl) product
Description: as §1

[3] = Methemoglobin content of PEG-Hb preparations; format: physicochemical; settings: in preparation
Description: as §1

[4] = Half-life and intravascular Met-Hb in rats after 70 percent exchange transfusion; format: in vivo; settings: rat, in vivo
Description: Blood circulating time of polyalkylene oxide-modified Hb may, for example, and not by way of limitation, be evaluated by monitoring the concentration of hemoglobin in the plasma fraction (at 540 nm) of blood samples sequentially collected following exchange transfusion with modified Hb. Hemoglobin disappearance may be plotted as a function of time.

rats = test: Blood pressure, heart rate and breathing in rats after 70 percent exchange transfusion; format: in vivo; settings: 70% exchange transfusion
Description: Acute toxicity studies may be performed in any suitable experimental animal. Preferably, a range of exposures may be tested; for example, by evaluating animals that have received a 50 or 70 percent exchange transfusion as compared to animals that have received a 100 percent exchange transfusion. Vital signs and visual observations should be recorded, and the animals may be sacrificed after a period of time estimated to correspond to one half-life of the hemoglobin formulation being tested. Histological evaluation using standard techniques may be used to determine the presence or absence of toxic effects on tissues including lung, kidney, liver, or brain.
The results of in vivo studies, in which rats were given a 70 percent exchange transfusion of hemoglobin prepared according to Examples I-V or control (native bovine hemoglobin) are shown in Table V (bracketed numbers are values obtained in rats that were not transfused). Note that the breathing rate decreased slightly, and the blood pressure increased by at most about 30-35 percent relative to control, showing a good physiologic response to the exchange transfusion.

[5] = degree of modification 3%, 0.15M [Cl-]
[6] = degree of modification 6%, 0.15M [Cl-]
[7] = 30 mM sodium bisulfite, 59% deoxyHb before PEGylation
[8] = 50 mM sodium bisulfite, 63% deoxyHb before PEGylation
[9] = 100 mM sodium bisulfite, 75% deoxyHb before PEGylation
[10] = 175 mM sodium bisulfite, 95-100% deoxyHb before PEGylation
[11] = 0% deoxyHb before PEGylation, SC-PEG
[12] = 20% deoxyHb before PEGylation, SC-PEG
[13] = 35% deoxyHb before PEGylation, SC-PEG
[14] = 50% deoxyHb before PEGylation, SC-PEG
[15] = 70% deoxyHb before PEGylation, SC-PEG
[16] = 90% deoxyHb before PEGylation, SC-PEG
[17] = 95% deoxyHb before PEGylation, SC-PEG
[18] = 0% deoxyHb before PEGylation, BSC-PEG
[19] = 25% deoxyHb before PEGylation, BSC-PEG
[20] = 45% deoxyHb before PEGylation, BSC-PEG
[21] = 61% deoxyHb before PEGylation, BSC-PEG
[22] = 76% deoxyHb before PEGylation, BSC-PEG
[23] = 93% deoxyHb before PEGylation, BSC-PEG
[24] = [Cl-] of reaction solution 0.1 M, degree of modification approximately 20 percent
[25] = [Cl-] of reaction solution 0.5 M, degree of modification approximately 20 percent
[26] = [Cl-] of reaction solution 1.0 M, degree of modification approximately 20 percent
[27] = [Cl-] of reaction solution 1.5 M, degree of modification approximately 20 percent
[28] = [Cl-] of reaction solution 2.0 M, degree of modification approximately 20 percent
[29] = native, unmodified (footnote of Table VII)

- P50 [1, 5]: 34 mm Hg
- P50 ([1]; degree of modification 4.5%, 0.15M [Cl-]): 34 mm Hg
- P50 [1, 6]: 32.5 mm Hg
Compound: BSC-PEG(4600)-bHb: bovine hemoglobin modified with bifunctional BSC-PEG of molecular weight 4600

- P50 [1, 5]: 38.5 mm Hg
- P50 [1, 6]: 36.5 mm Hg
- P50 ([1]; degree of modification 7.3%, 0.15M [Cl-]): 36.5 mm Hg
Compound: BSC-PEG(6000)-bHb: bovine hemoglobin modified with bifunctional BSC-PEG of molecular weight 6000

- Hill Coefficient [1, 7]: 1.8
- P50 of PEG-Hb [1, 7]: 18.5 mmHg
- Hill Coefficient [1, 8]: 1.8
- P50 of PEG-Hb [1, 8]: 19.0 mmHg
- Hill Coefficient [1, 9]: 2.2
- P50 of PEG-Hb [1, 9]: 28.0 mmHg
- Hill Coefficient [1, 10]: 2.0
- P50 of PEG-Hb [1, 10]: 24.0 mmHg
Compound: Example IX: bovine hemoglobin deoxygenated with sodium bisulfite, then modified using monofunctionally activated SC-PEG

- Hill coeff. [1, 11]: 1.7
- P50 [1, 11]: 18 mmHg
- Hill coeff. [1, 12]: 1.7
- P50 [1, 12]: 18 mmHg
- Hill coeff. [1, 13]: 1.7
- P50 [1, 13]: 18 mmHg
- Hill coeff. [1, 14]: 2.0
- P50 [1, 14]: 24 mmHg
- Hill coeff. [1, 15]: 2.2
- P50 [1, 15]: 28 mmHg
- Hill coeff. [1, 16]: 2.0
- P50 [1, 16]: 22 mmHg
- Hill coeff. [1, 17]: 2.0
- P50 [1, 17]: 22 mmHg
Compound: Example VIII: bovine hemoglobin partially deoxygenated by gas exchange, modified with SC-PEG (M.W. 5141), SC-PEG:Hb 12:1
- colloid osmotic pressure [2]: 24 mmHg
- Viscosity ([2]; 6 percent (g/dl), 37° C.): 4.2 cp

- Hill coeff. [1, 18]: 1.8
- P50 [1, 18]: 20 mmHg
- Hill coeff. [1, 19]: 1.9
- P50 [1, 19]: 22 mmHg
- Hill coeff. [1, 20]: 2.0
- P50 [1, 20]: 25 mmHg
- Hill coeff. [1, 21]: 2.3
- P50 [1, 21]: 30 mmHg
- Hill coeff. [1, 22]: 2.3
- P50 [1, 22]: 31 mmHg
- Hill coeff. [1, 23]: 2.0
- P50 [1, 23]: 26 mmHg
Compound: Example X: bovine hemoglobin deoxygenated by gas exchange, modified with BSC-PEG (M.W. 5000), BSC-PEG:Hb 2.5:1, crosslinked
- colloid osmotic pressure [2]: 20 mmHg
- Viscosity ([2]; 6 percent (g/dl), 37° C.): 4.5 cp

- P50 [1, 24]: 24 mm Hg
- P50 [1, 25]: 30 mm Hg
- P50 [1, 26]: 32 mm Hg
- P50 [1, 27]: 31 mm Hg
- P50 [1, 28]: 32 mm Hg
Compound: SC-PEG(2000)-bHb: bovine hemoglobin modified with monofunctional SC-PEG of molecular weight 2000

- P50 [1, 24]: 24 mm Hg
- P50 [1, 25]: 28 mm Hg
- P50 [1, 26]: 30 mm Hg
- P50 [1, 27]: 30 mm Hg
- P50 [1, 28]: 30 mm Hg
Compound: SC-PEG(4000)-bHb: bovine hemoglobin modified with monofunctional SC-PEG of molecular weight 4000

- P50 [1, 24]: 22 mm Hg
- P50 [1, 25]: 24 mm Hg
- P50 [1, 26]: 29 mm Hg
- P50 [1, 27]: 30 mm Hg
- P50 [1, 28]: 30 mm Hg
- P50 ([1]; reacted in 0.1M [Cl-], degree of modification 5%): 24 mm Hg
- P50 ([1]; reacted in 0.1M [Cl-], degree of modification 10%): 22 mm Hg
- P50 ([1]; reacted in 0.1M [Cl-], degree of modification 20%): 22 mm Hg
- P50 ([1]; reacted in 0.5M [Cl-], degree of modification 5%): 28 mm Hg
- P50 ([1]; reacted in 0.5M [Cl-], degree of modification 10%): 24 mm Hg
- P50 ([1]; reacted in 0.5M [Cl-], degree of modification 20%): 24 mm Hg
- P50 ([1]; reacted in 1.0M [Cl-], degree of modification 5%): 30 mm Hg
- P50 ([1]; reacted in 1.0M [Cl-], degree of modification 10%): 29 mm Hg
- P50 ([1]; reacted in 1.0M [Cl-], degree of modification 20%): 29 mm Hg
Compound: SC-PEG(5000)-bHb: bovine hemoglobin modified with monofunctional SC-PEG of molecular weight 5000

- Hill Coefficient [1, 29]: 2.3
- P50 [1, 29]: 28 mmHg
Compound: native stromafree bHb: native stromafree bHb from Biopure, Boston, MA [reference compound]

The remaining lines, values behind:

Compound: N[C@@H](CS)C(=O)O [Cysteine, cysteine]
- Free Iron (bovine hemoglobin): 4.26 µg/dL
- Met Hb (bovine hemoglobin): 0.8%
- deoxy Hb (bovine hemoglobin): 97.6%
- deoxyhemoglobin level, ranking among agents (bovine hemoglobin; in words): highest levels of deoxyhemoglobin
- methemoglobin and free iron level, ranking among agents (bovine hemoglobin; in words): lowest levels of methemoglobin and free iron

Compound: N[C@@H](CCC(=O)N[C@@H](CS)C(=O)NCC(=O)O)C(=O)O [GSH, reduced glutathione]
- Met Hb (bovine hemoglobin): 11.9%
- deoxy Hb (bovine hemoglobin): 9.7%

Compound: CC(=O)N[C@@H](CS)C(=O)O [N-acetyl cysteine]
- Met Hb (bovine hemoglobin): 18.8%
- deoxy Hb (bovine hemoglobin): 0%

Compound: CSCC[C@H](NC(C)=O)C(=O)O [N-acetyl methionine]
- Met Hb (bovine hemoglobin): 19.6%
- deoxy Hb (bovine hemoglobin): 0%

Compound: O=C1O[C@H]([C@@H](O)CO)C([O-])=C1O.[Na+] [Na-Ascorbate, sodium ascorbate]
- Free Iron (bovine hemoglobin): 233.7 µg/dL
- Met Hb (bovine hemoglobin): 4.1%
- deoxy Hb (bovine hemoglobin): 96.7%

Compound: Bifunctional PEG-modified bHb: bovine hemoglobin reacted with BSC-PEG
- P50 vs monofunctional PEG-modified bHb ([1]; in words): higher P50 than monofunctional PEG-modified bHb

Compound: Example I: bovine hemoglobin reduced with cysteine, modified with SC-PEG (MW 5000) at a molar ratio of 20:1
- Hill coeff. ([1]; Examples I-V and control): 2.58
- Osmotic Press. [2]: 24 mmHg
- Viscosity [2]: 3.6 cp
- colloid osmolality [2]: 24 mm Hg
- MetHb [3]: 6%
- Endotoxin (Endotoxin (LAL test)): < .1 EU
- endotoxins (Endotoxin (LAL test)): free of endotoxins
- Formation of Met-bHb in rat intravasculature [4]: substantially lower than that of unmodified hemoglobin
- Met-Hb at Half-life [4]: 29.3%
- Half-life ([4]; iv): 8.9 h
- Breathing (rats): 117 min⁻¹
- Heart Rate (rats): 392 min⁻¹
- Mean Arterial Press. (rats): 102 mmHg
